Experimental data: patent US20220153766A1, “CONDENSED TRICYCLIC COMPOUND USED AS KINASE INHIBITOR” (Hangzhou Innogate Pharma Co., Ltd., priority 2019, published 2022)

Assays:
[1] = target: ALK (Homo sapiens, UniProt Q9UM73); test: ALK kinase activity inhibition, Caliper mobility shift assay, method 2; type: biochemical; details: ALK 1.25 nM, ATP 30 μM
Protocol: 2. ALK Kinase Activity Inhibition Experiment:
Method 2: Caliper mobility shift assay was used to measure ALK protein kinase activity. The method is basically the same as method 1, with individual parameters adjusted. The initial concentration of the compound is 1 mM, and sequentially diluted 4-fold to make 6 points (7 points for some individual compounds). Use a dispenser Echo 550 to transfer 250 nL of 100-fold final concentration of the compound to the target plate 3573, add 10 μL ALK with final concentration of 1.25 nM, incubate at room temperature for 10 minutes (the negative control well contains 10 μL kinase buffer and 250 nL 100% DMSO; the positive control well contains 10 μL kinase solution and 250 nL 100% DMSO). On the kinase ALK, add 15 μL of ATP with a final concentration of 30 μM and 3 μM of the substrate peptide No. 22 mixed solution to react for 25 minutes; add 30 μL of stop detection solution containing EDTA to stop the kinase reaction. Use Caliper EZ Reader to read the conversion rate. Inhibition rate %=(Average positive control conversion rate %−Sample conversion rate %/(Average positive control conversion rate %−Average negative control conversion rate %). Among them: negative control wells represent the conversion rate readings without enzyme activity; positive control wells represent the conversion rate readings of wells without compound inhibition. Take the log value of the concentration as the X-axis, and the percentage inhibition rate on the Y-axis. Log (inhibitor) vs. response—Variable slope of analysis software GraphPad Prism 5 was used to fit the curve to obtain the IC50 value of each compound on the enzyme activity. Calculation formula: Y=Bottom+(Top−Bottom)/(1+10^((Log IC50−X)*HillSlope)).

[2] = Pharmacokinetic study in rats after intragastrical administration; type: in vivo; details: male, rat, plasma, po, SD rats, 3 mg/kg
[3] = target: Ba/F3_EGFR del19/T790M/C797S cells (Homo sapiens, UniProt P00533, T790M/C797S, cells depend on it, form not given); test: Ba/F3_EGFR (del19-T790M-C797S) cell proliferation inhibition, CTG, method 2; type: cell-based; details: 2000 cells/well, 72 h, read-out: Ba/F3_EGFR (del19-T790M-C797S) cell proliferation inhibition (IC50 value) Method 2
Chain of Ba/F3_EGFR del19/T790M/C797S cells (P00533 with tags, fused parts or gaps DEL746-750/T790M/C797S, form open): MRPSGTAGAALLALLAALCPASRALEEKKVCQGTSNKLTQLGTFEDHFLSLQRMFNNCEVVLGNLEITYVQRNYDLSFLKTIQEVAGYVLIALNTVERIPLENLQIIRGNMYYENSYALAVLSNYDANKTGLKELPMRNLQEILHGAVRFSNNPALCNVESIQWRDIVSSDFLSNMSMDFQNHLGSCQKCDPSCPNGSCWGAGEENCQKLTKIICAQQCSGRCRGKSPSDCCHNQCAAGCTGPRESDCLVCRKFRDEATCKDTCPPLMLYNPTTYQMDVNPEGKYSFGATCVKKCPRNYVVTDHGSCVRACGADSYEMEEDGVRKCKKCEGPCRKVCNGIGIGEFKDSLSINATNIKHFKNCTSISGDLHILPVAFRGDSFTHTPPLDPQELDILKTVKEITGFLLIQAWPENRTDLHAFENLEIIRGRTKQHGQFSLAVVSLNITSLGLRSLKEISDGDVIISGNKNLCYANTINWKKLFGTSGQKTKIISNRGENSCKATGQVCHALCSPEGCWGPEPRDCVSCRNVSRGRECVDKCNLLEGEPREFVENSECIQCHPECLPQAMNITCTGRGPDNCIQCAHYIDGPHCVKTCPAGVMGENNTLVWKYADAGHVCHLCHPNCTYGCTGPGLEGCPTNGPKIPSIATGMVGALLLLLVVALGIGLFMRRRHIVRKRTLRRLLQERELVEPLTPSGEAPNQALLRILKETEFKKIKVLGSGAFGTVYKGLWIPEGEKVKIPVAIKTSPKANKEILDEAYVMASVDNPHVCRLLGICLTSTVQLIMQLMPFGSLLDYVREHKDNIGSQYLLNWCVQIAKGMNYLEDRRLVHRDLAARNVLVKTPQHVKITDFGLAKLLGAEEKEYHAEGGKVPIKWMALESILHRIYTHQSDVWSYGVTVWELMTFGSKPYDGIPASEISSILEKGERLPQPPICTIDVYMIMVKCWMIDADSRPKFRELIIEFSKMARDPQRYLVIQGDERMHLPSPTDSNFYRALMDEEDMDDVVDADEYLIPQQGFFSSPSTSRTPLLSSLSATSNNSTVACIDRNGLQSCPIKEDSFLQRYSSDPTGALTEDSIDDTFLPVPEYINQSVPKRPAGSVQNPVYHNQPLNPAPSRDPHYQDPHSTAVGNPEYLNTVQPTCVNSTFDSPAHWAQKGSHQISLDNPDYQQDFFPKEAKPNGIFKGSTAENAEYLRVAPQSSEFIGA
Protocol: Take a small amount of cells and count them with ViCell. 2) Adjust the cell density, inoculate the cells in a 384-well plate at 2000/well, and incubate in a 37° C., 5% CO2 incubator for 4 hours. 3) Set up the program of Tecan HP D300, add the compound to the well plate. The maximum initial concentration of the compound is 1-4 μM, 3 folds dilution, 9 concentrations, and the DMSO content in each well is unified to 0.2%.
CTG method detection: 1) Take out the CTG reagent and cell plate and equilibrate at room temperature for 30 min, add 25 μL CTG to each well, shake at medium speed for 2 min, centrifuge at 1000 rpm for 1 minutes, and stand still at room temperature for 10 minutes. 2) Envision instrument reads the chemiluminescence signal value.
Data analysis: IC50 results are analyzed by IDBS's XL-fit 5.0 software.

[4] = target: EGFR (T790M/L858R/C797S) (Homo sapiens, UniProt P00533, C797S/L858R/T790M); test: EGFR (T790M/L858R/C797S) kinase activity inhibition, Caliper mobility shift assay; type: biochemical; details: kinase 2.5 nM, ATP 40 μM
Chain of EGFR (T790M/L858R/C797S) (P00533 25-1210 T790M/C797S/L858R): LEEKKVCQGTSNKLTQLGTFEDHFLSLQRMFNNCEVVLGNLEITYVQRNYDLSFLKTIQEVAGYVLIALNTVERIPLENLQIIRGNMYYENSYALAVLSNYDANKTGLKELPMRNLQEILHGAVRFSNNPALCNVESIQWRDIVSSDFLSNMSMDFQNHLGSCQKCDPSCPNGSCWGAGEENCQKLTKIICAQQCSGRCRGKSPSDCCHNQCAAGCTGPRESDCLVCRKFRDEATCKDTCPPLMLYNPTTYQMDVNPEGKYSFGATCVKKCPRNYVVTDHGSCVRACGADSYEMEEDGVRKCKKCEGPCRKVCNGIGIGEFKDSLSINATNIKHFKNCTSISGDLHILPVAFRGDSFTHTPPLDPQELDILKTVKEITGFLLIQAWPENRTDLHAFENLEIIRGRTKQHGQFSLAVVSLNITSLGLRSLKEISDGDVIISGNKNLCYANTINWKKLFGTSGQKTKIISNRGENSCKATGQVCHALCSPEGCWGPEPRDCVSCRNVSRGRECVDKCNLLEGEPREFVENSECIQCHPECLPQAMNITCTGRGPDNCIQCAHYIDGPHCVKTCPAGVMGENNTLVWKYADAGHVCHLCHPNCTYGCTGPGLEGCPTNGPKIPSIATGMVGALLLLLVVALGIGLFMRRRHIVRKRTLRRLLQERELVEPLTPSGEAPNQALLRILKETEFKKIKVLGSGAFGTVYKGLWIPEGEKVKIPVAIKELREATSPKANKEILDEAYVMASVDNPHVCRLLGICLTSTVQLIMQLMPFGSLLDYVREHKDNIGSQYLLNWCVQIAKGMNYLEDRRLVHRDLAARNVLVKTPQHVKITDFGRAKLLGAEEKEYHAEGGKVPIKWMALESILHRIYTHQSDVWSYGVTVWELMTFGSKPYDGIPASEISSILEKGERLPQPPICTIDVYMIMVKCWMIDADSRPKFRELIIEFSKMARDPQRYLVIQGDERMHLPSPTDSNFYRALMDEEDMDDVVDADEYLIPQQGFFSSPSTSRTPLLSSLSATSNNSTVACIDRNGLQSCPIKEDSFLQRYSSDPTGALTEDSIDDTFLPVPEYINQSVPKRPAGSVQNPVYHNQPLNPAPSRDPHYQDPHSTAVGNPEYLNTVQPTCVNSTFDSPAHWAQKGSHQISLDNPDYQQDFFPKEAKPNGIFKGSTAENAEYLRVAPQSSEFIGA
Protocol: The basic method is the same as ALK activity test method 2. The test concentration of the compound starts at 2 μM, and is diluted 5 folds into 6 (7 for individual compounds) concentration points. […] Add 30 μL of stop solution containing EDTA to stop the kinase reaction. Use Caliper EZ Reader to read the conversion rate. Inhibition rate %=(Average positive control conversion rate %−Sample conversion rate %/(Average positive control conversion rate %−Average negative control conversion rate %). Among them: negative control wells represent the conversion rate readings without enzyme activity; positive control wells represent the conversion rate readings of wells without compound inhibition. Take the log value of the concentration as the X-axis, and the percentage inhibition rate on the Y-axis. Log (inhibitor) vs. response—Variable slope of analysis software GraphPad Prism 5 was used to fit the curve to obtain the IC50 value of each compound on the enzyme activity. Calculation formula: Y=Bottom+(Top−Bottom)/(1+10^((Log IC50−X)*HillSlope)).

Chain of ALK (Q9UM73 19-1620): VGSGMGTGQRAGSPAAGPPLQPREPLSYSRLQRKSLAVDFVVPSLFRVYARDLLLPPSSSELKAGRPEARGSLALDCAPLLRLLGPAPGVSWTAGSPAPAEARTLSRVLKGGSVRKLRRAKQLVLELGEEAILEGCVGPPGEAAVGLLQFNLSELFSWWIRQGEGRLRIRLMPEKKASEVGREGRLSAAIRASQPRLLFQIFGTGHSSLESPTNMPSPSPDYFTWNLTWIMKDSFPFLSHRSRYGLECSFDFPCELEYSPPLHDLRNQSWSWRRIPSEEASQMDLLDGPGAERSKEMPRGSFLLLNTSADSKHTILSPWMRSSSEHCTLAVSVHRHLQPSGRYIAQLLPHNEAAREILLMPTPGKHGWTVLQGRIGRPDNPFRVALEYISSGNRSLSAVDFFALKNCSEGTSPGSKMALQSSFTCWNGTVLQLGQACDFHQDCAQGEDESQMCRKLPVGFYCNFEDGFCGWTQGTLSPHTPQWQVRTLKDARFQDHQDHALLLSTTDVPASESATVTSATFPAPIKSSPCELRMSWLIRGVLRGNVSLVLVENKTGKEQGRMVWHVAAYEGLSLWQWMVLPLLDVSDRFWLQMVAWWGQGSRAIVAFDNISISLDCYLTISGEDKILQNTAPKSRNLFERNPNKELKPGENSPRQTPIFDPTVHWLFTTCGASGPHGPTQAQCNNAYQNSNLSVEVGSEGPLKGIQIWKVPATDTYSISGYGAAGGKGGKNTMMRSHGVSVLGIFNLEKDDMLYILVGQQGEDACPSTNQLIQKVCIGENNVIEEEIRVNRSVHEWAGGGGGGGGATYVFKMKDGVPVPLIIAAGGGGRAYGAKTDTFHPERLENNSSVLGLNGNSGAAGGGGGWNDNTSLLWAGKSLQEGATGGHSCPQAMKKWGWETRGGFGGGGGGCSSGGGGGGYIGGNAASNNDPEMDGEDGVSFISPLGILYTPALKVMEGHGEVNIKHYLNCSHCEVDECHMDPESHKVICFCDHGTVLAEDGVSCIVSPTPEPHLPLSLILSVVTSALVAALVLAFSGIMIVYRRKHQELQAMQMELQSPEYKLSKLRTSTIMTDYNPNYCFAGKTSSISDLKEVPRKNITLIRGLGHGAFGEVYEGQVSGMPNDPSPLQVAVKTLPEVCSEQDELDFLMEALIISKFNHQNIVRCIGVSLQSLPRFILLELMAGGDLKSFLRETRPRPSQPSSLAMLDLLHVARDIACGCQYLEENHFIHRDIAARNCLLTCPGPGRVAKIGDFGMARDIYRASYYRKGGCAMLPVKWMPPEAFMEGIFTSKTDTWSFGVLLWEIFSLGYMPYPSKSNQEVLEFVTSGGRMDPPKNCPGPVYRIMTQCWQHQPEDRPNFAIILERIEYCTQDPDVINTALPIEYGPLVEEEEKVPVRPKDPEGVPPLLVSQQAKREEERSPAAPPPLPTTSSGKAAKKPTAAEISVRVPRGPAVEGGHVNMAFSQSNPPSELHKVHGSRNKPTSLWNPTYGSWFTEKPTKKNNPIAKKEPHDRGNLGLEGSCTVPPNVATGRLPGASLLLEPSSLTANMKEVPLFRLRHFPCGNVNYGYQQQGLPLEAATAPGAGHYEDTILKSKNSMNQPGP

- IC50 [1]: 1 to 50 nM
- Cmax [2]: 196 ng/mL
- Tmax [2]: 5.33 h
- half-life [2]: 5.17 h
- AUC(0-t) ([2]; read-out: AUC0-24 h): 2750 ng·h/mL
- GI50 [3]: < 20 nM
- IC50 [4]: < 3 nM
SMILES: Cc1cc(Nc2ncc(Cl)c(Nc3ccccc3P(C)(C)=O)n2)cc2c1N1CCN(C3CCN(C)CC3)C[C@@H]1CO2 [Compound 27R]
